Source: the NIST ThermoML archive (doi:10.1016/j.jct.2009.06.003)
± gives the expanded uncertainty stated by the source.

Assays:
[1] = DTA
[2] = Molar enthalpy of transition or fusion; details: DSC

Structure (SMILES)	Normal melting temperature ([1]; Crystal 1)	Triple point temperature ([1]; Crystal 2)	Glass transition temperature [1]	Molar enthalpy of transition or fusion ([2]; Crystal 1)	Molar enthalpy of transition or fusion ([2]; Crystal 2)	Normal melting temperature ([1]; Crystal)	Molar enthalpy of transition or fusion ([2]; Crystal)
CC[S+](CC)CC.O=S(=O)([N-]S(=O)(=O)C(F)(F)F)C(F)(F)F [triethylsulfonium bis((trifluoromethyl)sulfonyl)imide]	-10.3 ± 0.5 °C	241.1 ± 2 K	-73.8 ± 2 °C	6.98 ± 0.28 kJ/mol	9.41 ± 0.34 kJ/mol	–	–
Cc1cc(C)[nH+]c(C)c1.Cc1ccc(S(=O)(=O)[O-])cc1 [2,4,6-trimethylpyridinium 4-methylbenzenesulfonate]	–	–	-7.8 ± 2 °C	–	–	130.6 ± 0.5 °C	22.9 ± 0.68 kJ/mol
CCCC[n+]1cccc(C)c1.Cc1ccc(S(=O)(=O)[O-])cc1 [1-butyl-3-methylpyridinium 4-methylbenzenesulfonate]	–	–	-53.0 ± 2 °C	–	–	50.6 ± 0.5 °C	1.53 ± 0.17 kJ/mol
CCCCCC[n+]1cccc(C)c1.Cc1ccc(S(=O)(=O)[O-])cc1 [1-hexyl-3-methylpyridinium 4-methylbenzenesulfonate]	–	–	-39 ± 2 °C	–	–	56.2 ± 0.5 °C	10.1 ± 0.37 kJ/mol
CCCCCCn1cc[n+](C)c1.N#C[S-] [1-hexyl-3-methylimidazolium thiocyanate]	–	–	-83.2 ± 2 °C	–	–	–	–
CCn1cc[n+](C)c1.N#C[S-] [1-ethyl-3-methylimidazolium thiocyanate]	–	–	-97.5 ± 2 °C	–	–	–	–
Cc1cc[n+](C)cc1.Cc1ccc(S(=O)(=O)[O-])cc1 [1,4-dimethylpyridinium 4-methylbenzenesulfonate]	–	–	–	–	–	151.7 ± 0.5 °C	30.9 ± 0.88 kJ/mol
CCCC[n+]1ccc(C)cc1.O=S(=O)([N-]S(=O)(=O)C(F)(F)F)C(F)(F)F	–	–	-77.2 ± 2 °C	–	–	18.2 ± 0.5 °C	21.9 ± 0.66 kJ/mol
